Experimental data taken from patent publication US20030153951A1, “Methods and devices for treating arrhythmias using defibrillation shocks” (priority 2002, published 2003).

Columns and labels:
ventricular fibrillation = assay: Defibrillation threshold (3-reversal up/down protocol) after electrically induced ventricular fibrillation in anesthetized pigs; format: in vivo
From the text: (§1) Six healthy pigs (30-35 kg) of either sex were anesthetized, monitored, and maintained under physiologic conditions. See, Chattipakorn et al. (2000). Two catheter-mounted platinum coated titanium coil electrodes were used as defibrillating electrodes. A 34-mm catheter was inserted into the right ventricular (RV) apex and served as the cathode for the first phase of the biphasic shock. […] The position of the catheters was verified with fluoroscopy. The blood pressure and heart rate were monitored continuously throughout the entire study.
Ventricular fibrillation was induced by 60-Hz alternating current delivered via an electrode at the tip of the RV catheter. After 10 seconds of ventricular fibrillation, defibrillation was attempted with 10-ms biphasic truncated exponential shocks. Delivered voltage and current were recorded on a waveform analyzer and total delivered energy was calculated. A minimum of 4 min was allowed to elapse between ventricular fibrillation episodes.
(§2) The defibrillation threshold was determined 4 times during 4 different conditions in this study. The defibrillation threshold in each group was determined using a 3-reversal up/down protocol. See Chattipakorn et al. The first defibrillation threshold was determined at the beginning of the study. This defibrillation threshold was used as a control defibrillation threshold (control-DFT). Then, Flunarizine, a delayed afterdepolarization inhibitor, was injected intravenously as a bolus (2 mg/kg) and maintenance (4 mg/kg/hr) dose. The second defibrillation threshold (drug-DFT) was determined 15 minutes after the application of Flunarizine. After the drug-DFT was obtained, the administration of Flunarizine was terminated while the blood pressure and heart rate were monitored. The third defibrillation threshold (washout-DFT) was determined again when the blood pressure returned to the control level which normally took 60 minutes after the termination of the drug.
Values are shown as mean standard deviation. Comparisons of data among different defibrillation threshold groups were performed using an analysis of variance. When statistical significance was found, individual differences were analyzed with a Fisher's post-hoc test. Differences were considered significant when P<0.05.

[1] = Systolic blood pressure monitored during the defibrillation threshold study; format: in vivo; details: pigs
From the text: as §1
as §2, with “Then, Flunarizine, a delayed afterdepolarization inhibitor, was injected intravenously as a bolus (2 mg/kg) and maintenance (4 mg/kg/hr) dose.” left out, “drug. […]” for “drug.”

For `Fc1ccc(C(c2ccc(F)cc2)N2CCN(C/C=C/c3ccccc3)CC2)cc1` [Flunarizine], the “washout defibrillation threshold compared with control-DFT” value (ventricular fibrillation; after termination of drug, when blood pressure returned to control level (normally 60 minutes)) was “not significantly different from the control-DFT”, the “reduction of the defibrillation threshold by energy” value (ventricular fibrillation; drug-DFT vs control-DFT) was “approximately 40%” and the “reduction of the defibrillation threshold by leading edge voltage” value (ventricular fibrillation; drug-DFT vs control-DFT) was “approximately 22%”. The “drug-DFT, delivered leading edge voltage” value (ventricular fibrillation; i.v. bolus 2 mg/kg + maintenance 4 mg/kg/hr, determined 15 minutes after application, 10-ms biphasic shocks, mean ± SD, control-DFT 623±120 volts) was 485±82 volts, the “drug-DFT, total delivered energy” value (ventricular fibrillation; i.v. bolus 2 mg/kg + maintenance 4 mg/kg/hr, determined 15 minutes after application, mean ± SD, control-DFT 23±4 joules) was 14±3 joules and the systolic blood pressure ([1]; after i.v. injection (bolus 2 mg/kg + 4 mg/kg/hr), mean ± SD, control 102±11 mmHg) was 76±10 mmHg. The “reduction of the systolic blood pressure” value ([1]; vs control) was ~26%.
